Consider 1 molecule from article PMC13002968 (Oncogenesis, 2026).

This assay addresses programmed cell death protein 1 (PD-1) (Homo sapiens, UniProt Q15116). Put plainly: SPR. Type of assay: binding.

Chain of programmed cell death protein 1 (PD-1) (Q15116 25-288): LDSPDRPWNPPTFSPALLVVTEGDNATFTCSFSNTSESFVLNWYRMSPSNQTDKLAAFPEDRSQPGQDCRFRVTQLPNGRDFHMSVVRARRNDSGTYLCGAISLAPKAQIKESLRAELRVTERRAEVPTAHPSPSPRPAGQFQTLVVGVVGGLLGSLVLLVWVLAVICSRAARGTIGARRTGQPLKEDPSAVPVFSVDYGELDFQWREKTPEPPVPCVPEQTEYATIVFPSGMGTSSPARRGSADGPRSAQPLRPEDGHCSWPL

For the molecule `C/C(O)=C(\C#N)C(=O)Nc1ccc(C(F)(F)F)cc1` [TER, teriflunomide], binding was put at a Kd of 1.47 nM.
